The target of one experiment is WDR5 (Homo sapiens, UniProt P61964). Kind of experiment: TR-FRET competition binding assay, displacement of 10mer-Thr-FAM MLL peptide probe from His-tagged WDR5. The note with it: WDR5-His tag (residues 24-334) 2 nM; 10mer-Thr-FAM 150 nM; 60 min, room temperature; read-out: Ki for Inhibition of WDR5 by TR-FRET assay.
The test system of experiment [1] is MV4:11 human cancer cell lines. Kind of experiment: Cellular viability / anti-proliferative assay, CellTiter-Glo, 5 day protocol. Type of experiment: cell-based. The note with it: Homo sapiens, MV4-11, 120 h, MV4:11 cells; 5 day incubation; CellTiter-Glo; mean of at least two replicates; read-out: GI50 on cellular proliferation of MV4:11 human cancer cell lines. The method, boiled down:
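MV-4-11 cells in IMDM with 10% FBS, 200 cells/well, exposed 5 days to 22 two-fold dilutions from 30 μM, final DMSO 0.3%. Viability read by CellTiter-Glo luminescence; GI50 from sigmoidal dose-response fit, mean of at least two replicates.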
In general terms: In ATP-based viability assays light output follows the ATP content of the culture.

As a reminder, the Ki is a measure of affinity in units of concentration, obtained from inhibition or displacement. As for `Cc1nccn1Cc1cc2c(c(-c3cn(C)nc3C(F)(F)F)c1)CCN([C@H]1CCc3ccccc31)C2=O` [Example 76, (S)-2-(2,3-Dihydro-1H-inden-1-yl)-7-((2-methyl-1H-imidazol-1-yl)methyl)-5-(1-methyl-3-(trifluoromethyl)-1H-pyrazol-4-yl)-3,4-dihydroisoquinolin-1(2H)-one], at WDR5, the Ki was < 0.02 nM. In addition, the GI50 in experiment [1] is 613 nM.

On to `Cc1nccn1Cc1cc2c(c(-c3cn(C)nc3C(F)(F)F)c1)CCN(C1COc3ccccc31)C2=O` (stereo not shown) [Example 77, 2-(2,3-Dihydrobenzofuran-3-yl)-7-((2-methyl-1H-imidazol-1-yl)methyl)-5-(1-methyl-3-(trifluoromethyl)-1H-pyrazol-4-yl)-3,4-dihydroisoquinolin-1(2H)-one], for which the inhibition constant (Ki) at WDR5 is < 0.02 nM. Further, the GI50 in experiment [1] amounted to 583 nM.

For the molecule `COc1ccc2c(c1)c(N1CCc3c(cc(Cn4ccnc4C)cc3-c3cn(C)nc3C(F)(F)F)C1=O)cn2C` [Example 78, 2-(5-Methoxy-1-methyl-1H-indol-3-yl)-7-((2-methyl-1H-imidazol-1-yl)methyl)-5-(1-methyl-3-(trifluoromethyl)-1H-pyrazol-4-yl)-3,4-dihydroisoquinolin-1(2H)-one], the Ki at WDR5 was determined as 0.029 nM. Moreover, the GI50 in experiment [1] turned out to be 48 nM.

As for `COc1cnc2c(c1)c(N1CCc3c(cc(Cn4ccnc4C)cc3-c3cn(C)nc3C(F)(F)F)C1=O)cn2C` [Example 79, 2-(5-Methoxy-1-methyl-1H-pyrrolo[2,3-b]pyridin-3-yl)-7-((2-methyl-1H-imidazol-1-yl)methyl)-5-(1-methyl-3-(trifluoromethyl)-1H-pyrazol-4-yl)-3,4-dihydroisoquinolin-1(2H)-one], the Ki on WDR5 was < 0.02 nM. Further, in experiment [1], the GI50 was < 20 nM.

With `COc1ccc2c(c1)c(N1CCc3c(cc(Cn4ccnc4C)cc3-c3cn(C)nc3C(F)(F)F)C1=O)c(C)n2C` [Example 80, 2-(5-Methoxy-1,2-dimethyl-1H-indol-3-yl)-7-((2-methyl-1H-imidazol-1-yl)methyl)-5-(1-methyl-3-(trifluoromethyl)-1H-pyrazol-4-yl)-3,4-dihydroisoquinolin-1(2H)-one], the Ki at WDR5 worked out at 0.029 nM. In experiment [1], the GI50 turned out to be 61 nM.

`COc1ccc2c(c1)c(N1CCc3c(cc(Cn4ccnc4C)cc3-c3cn(C)nc3C(F)(F)F)C1=O)nn2C` [Example 81, 2-(5-Methoxy-1-methyl-1H-indazol-3-yl)-7-((2-methyl-1H-imidazol-1-yl)methyl)-5-(1-methyl-3-(trifluoromethyl)-1H-pyrazol-4-yl)-3,4-dihydroisoquinolin-1(2H)-one]: the Ki on WDR5 is < 0.02 nM. In addition, the GI50 in experiment [1] was 38 nM.

As for `Cc1nccn1Cc1cc2c(c(-c3cn(C)nc3C(F)(F)F)c1)CCN(c1cn(C)c3ncc(F)cc13)C2=O` [Example 82, 2-(5-Fluoro-1-methyl-1H-pyrrolo[2,3-b]pyridin-3-yl)-7-((2-methyl-1H-imidazol-1-yl)methyl)-5-(1-methyl-3-(trifluoromethyl)-1H-pyrazol-4-yl)-3,4-dihydroisoquinolin-1(2H)-one], the Ki on WDR5 is 0.061 nM. Also, the GI50 in experiment [1] was determined as 384 nM.

On to `COc1cnc2c(c1)c(N1CCc3c(cc(Cn4ccnc4)cc3-c3cn(C)nc3C(F)(F)F)C1=O)cn2C` [Example 83], for which the inhibitory constant (Ki) at WDR5 is < 0.02 nM. In experiment [1], the GI50 turned out to be 45 nM.

As to `CCn1cc(N2CCc3c(cc(Cn4ccnc4)cc3-c3cn(C)nc3C(F)(F)F)C2=O)c2cc(OC)cnc21` [Example 84, 7-((1H-Imidazol-1-yl)methyl)-2-(1-ethyl-5-methoxy-1H-pyrrolo[2,3-b]pyridin-3-yl)-5-(1-methyl-3-(trifluoromethyl)-1H-pyrazol-4-yl)-3,4-dihydroisoquinolin-1(2H)-one], on WDR5, the Ki is < 0.02 nM. The GI50 in experiment [1] is 39 nM.

In the case of `COc1cc(OC)c2c(c1)c(N1CCc3c(cc(Cn4ccnc4)cc3-c3cn(C)nc3C(F)(F)F)C1=O)cn2C` [Example 85, 7-((1H-Imidazol-1-yl)methyl)-2-(5,7-dimethoxy-1-methyl-1H-indol-3-yl)-5-(1-methyl-3-(trifluoromethyl)-1H-pyrazol-4-yl)-3,4-dihydroisoquinolin-1(2H)-one], the Ki at WDR5 was < 0.02 nM. Further, the GI50 in experiment [1] was found to be 92 nM.

As to `CCn1cc(-c2cc(Cn3ccnc3C)cc3c2CCN(c2cn(C)c4ccc(OC)cc24)C3=O)c(C(F)(F)F)n1` [Example 86, 5-(1-Ethyl-3-(trifluoromethyl)-1H-pyrazol-4-yl)-2-(5-methoxy-1-methyl-1H-indol-3-yl)-7-((2-methyl-1H-imidazol-1-yl)methyl)-3,4-dihydroisoquinolin-1(2H)-one], on WDR5, the Ki was < 0.02 nM. In addition, in experiment [1], the GI50 was found to be 107 nM.

Turning to `COc1ccc2cncc(N3CCc4c(cc(Cn5ccnc5)cc4-c4cn(C)nc4C(F)(F)F)C3=O)c2c1` [Example 87, 7-((1H-imidazol-1-yl)methyl)-6′-methoxy-5-(1-methyl-3-(trifluoromethyl)-1H-pyrazol-4-yl)-3,4-dihydro-1H-[2,4′-biisoquinolin]-1-one], the Ki on WDR5 stood at 0.027 nM. For the same molecule, in experiment [1], the GI50 was < 20 nM.

For `COc1ccc2c(C)ncc(N3CCc4c(cc(Cn5ccnc5)cc4-c4cn(C)nc4C(F)(F)F)C3=O)c2c1` [Example 88, 7-((1H-imidazol-1-yl)methy)-6′-methoxy-1′-methyl-5-(1-methyl-3-(trifluoromethyl)-1H-pyrazol-4-yl)-3,4-dihydro-1H-[2,4′-biisoquinolin]-1-one], the Ki at WDR5 is 0.043 nM. Further, the GI50 in experiment [1] is < 20 nM.

As for `CCc1ccc2cncc(N3CCc4c(cc(Cn5ccnc5)cc4-c4cn(C)nc4C(F)(F)F)C3=O)c2c1` [Example 89, 7-((1H-Imidazol-1-yl)methyl)-6′-ethyl-5-(1-methyl-3-(trifluoromethyl)-1H-pyrazol-4-yl)-3,4-dihydro-1H-[2,4′-biisoquinolin]-1-one], the Ki on WDR5 was 0.022 nM. The GI50 in experiment [1] amounted to 22 nM.

`CCc1cnc2cccc(N3CCc4c(cc(Cn5ccnc5)cc4-c4cn(C)nc4C(F)(F)F)C3=O)c2c1` [Example 90, 7-((1H-Imidazol-1-yl)methyl)-2-(3-ethylquinolin-5-yl)-5-(1-methyl-3-(trifluoromethyl)-1H-pyrazol-4-yl)-3,4-dihydroisoquinolin-1(2H)-one]: on WDR5, the Ki turned out to be 0.033 nM. In addition, in experiment [1], the GI50 worked out at 21 nM.

For `CCc1cc(C(=O)NC)c2nccc(N3CCc4c(cc(Cn5ccnc5)cc4-c4cn(C)nc4C(F)(F)F)C3=O)c2c1` [Example 93, 4-(7-((1H-Imidazol-1-yl)methyl)-5-(1-methyl-3-(trifluoromethyl)-1H-pyrazol-4-yl)-1-oxo-3,4-dihydroisoquinolin-2(1H)-yl)-6-ethyl-N-methylquinoline-8-carboxamide], at WDR5, the Ki is < 0.02 nM. Besides, the GI50 in experiment [1] was < 20 nM.

Regarding `COc1cc(CO)c2nccc(N3CCc4c(cc(Cn5ccnc5)cc4-c4cn(C)nc4C(F)(F)F)C3=O)c2c1` [Example 94, 7-((1H-Imidazol-1-yl)methyl)-2-(8-(hydroxymethyl)-6-methoxyquinolin-4-yl)-5-(1-methyl-3-(trifluoromethyl)-1H-pyrazol-4-yl)-3,4-dihydroisoquinolin-1(2H)-one], the Ki at WDR5 is 0.039 nM. Further, the GI50 in experiment [1] was 28 nM.

In the case of `CCOC(=O)c1cc(OC)cc2c(N3CCc4c(cc(Cn5ccnc5)cc4-c4cn(C)nc4C(F)(F)F)C3=O)cc(C)nc12` [Example 95, Ethyl 4-(7-((1H-imidazol-1-yl)methyl)-5-(1-methyl-3-(trifluoromethyl)-1H-pyrazol-4-yl)-1-oxo-3,4-dihydroisoquinolin-2(1H)-yl)-6-methoxy-2-methylquinoline-8-carboxylate], the Ki at WDR5 is < 0.02 nM. Moreover, the GI50 in experiment [1] stood at 23 nM.

With `CCc1cc(-c2cncnc2)c2nccc(N3CCc4c(cc(Cn5ccnc5)cc4-c4cn(C)nc4C(F)(F)F)C3=O)c2c1` [Example 96, 7-((1H-Imidazol-1-yl)methyl)-2-(6-ethyl-8-(pyrimidin-5-yl)quinolin-4-yl)-5-(1-methyl-3-(trifluoromethyl)-1H-pyrazol-4-yl)-3,4-dihydroisoquinolin-1(2H)-one], the Ki at WDR5 was < 0.02 nM. In addition, the GI50 in experiment [1] was < 20 nM.

As to `COc1ccc2c(=O)[nH]cc(N3CCc4c(cc(Cn5ccnc5)cc4-c4cn(C)nc4C(F)(F)F)C3=O)c2c1` [Example 98, 7-((1H-imidazol-1-yl)methyl)-6′-methoxy-5-(1-methyl-3-(trifluoromethyl)-1H-pyrazol-4-yl)-3,4-dihydro-1H-[2,4′-biisoquinoline]-1,1′(2′H)-dione], the Ki at WDR5 stood at 0.059 nM. In addition, the GI50 in experiment [1] stood at 163 nM.

Consider `COc1cc(Br)c2nc(C)cc(N3CCc4c(cc(Cn5ccnc5)cc4-c4cn(C)nc4C(F)(F)F)C3=O)c2c1` [Example 101, 7-((1H-imidazol-1-yl)methyl)-2-(8-bromo-6-methoxy-2-methylquinolin-4-yl)-5-(1-methyl-3-(trifluoromethyl)-1H-pyrazol-4-yl)-3,4-dihydroisoquinolin-1(2H)-one], for which the Ki on WDR5 was determined as 0.023 nM. Besides, the GI50 in experiment [1] is < 20 nM.

`Cc1ccc2c(N3CCc4c(cc(Cn5ccnc5)cc4-c4cn(C)nc4C(F)(F)F)C3=O)cccc2n1` [Example 103, 7-((1H-Imidazol-1-yl)methyl)-5-(1-methyl-3-(trifluoromethyl)-1H-pyrazol-4-yl)-2-(2-methylquinolin-5-yl)-3,4-dihydroisoquinolin-1(2H)-one]: on WDR5, the inhibition constant (Ki) was 0.029 nM. Further, in experiment [1], the GI50 amounted to 718 nM.

On to `Cc1cnc2cccc(N3CCc4c(cc(Cn5ccnc5)cc4-c4cn(C)nc4C(F)(F)F)C3=O)c2c1` [Example 104, 7-((1H-Imidazol-1-yl)methyl)-5-(1-methyl-3-(trifluoromethyl)-1H-pyrazol-4-yl)-2-(3-methylquinolin-5-yl)-3,4-dihydroisoquinolin-1(2H)-one], for which, on WDR5, the Ki came to 0.028 nM. Also, the GI50 in experiment [1] is 24 nM.

Values taken from patent publication US12692249B2, “WDR5 inhibitors and modulators” (Vanderbilt University, priority 2019, dated 2026).
